Target: T1, PIKfyve (Homo sapiens, UniProt Q9Y2I7)
T1 construct: Recombinant GST-PIKfyve (full-length, #11-118)
Experiment: in vitro lipid kinase assay, ADP-Glo luminescence, PI([…])P substrate
Type: biochemical

T1 sequence (Q9Y2I7 2-2098): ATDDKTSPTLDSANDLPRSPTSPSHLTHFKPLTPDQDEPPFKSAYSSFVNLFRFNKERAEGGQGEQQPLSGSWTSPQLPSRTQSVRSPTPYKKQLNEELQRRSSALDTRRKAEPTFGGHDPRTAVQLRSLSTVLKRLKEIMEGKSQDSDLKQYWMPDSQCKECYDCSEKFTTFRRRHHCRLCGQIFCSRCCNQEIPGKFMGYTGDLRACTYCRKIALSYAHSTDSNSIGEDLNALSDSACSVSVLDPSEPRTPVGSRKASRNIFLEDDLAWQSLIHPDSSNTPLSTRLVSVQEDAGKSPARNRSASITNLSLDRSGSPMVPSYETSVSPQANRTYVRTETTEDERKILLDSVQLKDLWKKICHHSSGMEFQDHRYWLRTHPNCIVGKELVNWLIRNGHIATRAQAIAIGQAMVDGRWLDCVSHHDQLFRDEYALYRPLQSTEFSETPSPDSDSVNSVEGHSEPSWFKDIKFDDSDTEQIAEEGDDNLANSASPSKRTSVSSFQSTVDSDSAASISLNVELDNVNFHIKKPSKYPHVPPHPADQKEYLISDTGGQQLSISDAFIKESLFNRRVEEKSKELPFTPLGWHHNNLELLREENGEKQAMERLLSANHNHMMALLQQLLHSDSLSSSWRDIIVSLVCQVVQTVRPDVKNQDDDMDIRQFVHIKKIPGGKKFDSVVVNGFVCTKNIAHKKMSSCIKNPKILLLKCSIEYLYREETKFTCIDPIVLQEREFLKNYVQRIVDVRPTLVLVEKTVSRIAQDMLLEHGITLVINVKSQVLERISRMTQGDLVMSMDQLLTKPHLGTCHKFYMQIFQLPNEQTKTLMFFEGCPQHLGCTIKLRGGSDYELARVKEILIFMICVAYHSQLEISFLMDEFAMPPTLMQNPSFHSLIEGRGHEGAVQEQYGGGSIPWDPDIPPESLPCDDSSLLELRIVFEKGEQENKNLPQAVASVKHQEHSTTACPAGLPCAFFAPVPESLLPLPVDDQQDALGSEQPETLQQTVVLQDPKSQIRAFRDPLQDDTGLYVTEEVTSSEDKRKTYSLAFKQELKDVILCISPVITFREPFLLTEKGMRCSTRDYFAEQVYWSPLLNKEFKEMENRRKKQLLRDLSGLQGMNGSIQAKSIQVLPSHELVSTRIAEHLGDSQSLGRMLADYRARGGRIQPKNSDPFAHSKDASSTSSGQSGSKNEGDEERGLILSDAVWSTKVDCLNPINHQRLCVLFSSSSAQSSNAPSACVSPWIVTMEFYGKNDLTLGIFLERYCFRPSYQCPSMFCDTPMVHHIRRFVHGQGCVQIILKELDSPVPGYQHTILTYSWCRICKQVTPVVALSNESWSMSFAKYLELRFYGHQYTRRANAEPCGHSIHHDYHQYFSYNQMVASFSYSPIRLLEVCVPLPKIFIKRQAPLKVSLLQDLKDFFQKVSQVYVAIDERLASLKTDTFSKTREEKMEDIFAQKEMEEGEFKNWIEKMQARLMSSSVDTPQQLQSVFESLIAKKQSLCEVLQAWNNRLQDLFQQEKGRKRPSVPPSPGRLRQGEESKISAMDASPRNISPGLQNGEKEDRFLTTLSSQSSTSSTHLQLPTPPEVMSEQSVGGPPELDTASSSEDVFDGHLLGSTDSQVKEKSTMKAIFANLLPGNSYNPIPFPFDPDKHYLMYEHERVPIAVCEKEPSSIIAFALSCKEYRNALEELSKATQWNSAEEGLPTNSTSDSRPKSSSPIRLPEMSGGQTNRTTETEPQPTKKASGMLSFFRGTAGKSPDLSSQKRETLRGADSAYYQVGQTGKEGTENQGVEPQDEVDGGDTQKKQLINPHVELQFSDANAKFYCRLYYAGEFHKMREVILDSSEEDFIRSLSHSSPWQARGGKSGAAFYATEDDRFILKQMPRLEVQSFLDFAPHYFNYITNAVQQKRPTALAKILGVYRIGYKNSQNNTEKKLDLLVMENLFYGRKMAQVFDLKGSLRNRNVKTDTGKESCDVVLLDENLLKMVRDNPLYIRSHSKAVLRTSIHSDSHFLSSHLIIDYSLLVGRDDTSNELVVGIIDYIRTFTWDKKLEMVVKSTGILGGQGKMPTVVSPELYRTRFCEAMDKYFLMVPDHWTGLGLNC

IC50: 355 ± 36.2 nM
SMILES: Oc1ccc(-c2nc(-c3ccncc3)c(-c3ccc(F)cc3)[nH]2)cc1 [SB202190]

Reference: PMC10803372 (Cell Death & Disease, 2024)
